Reference: article PMC10094639, “Novel Antibiotic Resistance Genes Identified by Functional Gene Library Screening in Stenotrophomonas maltophilia and Chryseobacterium spp. Bacteria of Soil Origin” (International Journal of Molecular Sciences, 2023)
Converted amounts (≈) assume the structure as drawn.

Columns and labels:
CHM [1] = test system: T1, CHM; assay: UV-Vis spectrophotometry, initial hydrolysis rates, […] nm; type: biochemical, Chryseobacterium sp.; conditions: 50 mM HEPES pH 7.0, 50 µM ZnCl2, 22 °C
T1 construct: signal peptide removed; pET-28b (NcoI) in E. coli BL21 Tuner (DE3); no tag mentioned

IND-17 [2] = test system: T2, IND-17; assay: as above; type: biochemical, Chryseobacterium sp.; conditions: 50 mM HEPES pH 7.0, 50 µM ZnCl2, 22 °C
T2 construct: signal peptide removed; pET-28b (NcoI) in E. coli BL21 Tuner (DE3); no tag mentioned

C. aahli = assay: organism not typed; set-up: Broth microdilution MIC (Sensititre plates, ARIS 2X) against soil bacterial isolates; conditions: soil
Source text: (§1) Six Stenotrophomonas maltophilia and eight Chryseobacterium spp. antibiotic-resistant isolates were used for genomic library construction; all bacteria were isolated from farming field soil in Lithuania during the year 2016 [17, 65]. The isolates were designated as resistant if the MIC of antibiotic value matched EUCAST clinical breakpoints (v. 7.0, 2017, PK/PD (non-species related). Species were identified by matching obtained sequences with a sequence showing the highest maximum identity score from the GenBank database. If the identity of the best match was <99% and the query cover was <96%, only the genus was assigned. All environmental isolates were grown in LB medium at 28 °C. The bacteria were isolated from three farming fields in Lithuania during the year 2016 [17]. The sample collection points represented two different types of farming, i.e., organic and conventional (intensive); in all cases, the type of the soil was sandy loam. The organic farming sites were known not to use inorganic fertilizers or pesticides for a time period of over 20 years and were fertilized only with organic fertilizers (farmyard manure and slurry). Identification of bacterial isolates was based on 16S rRNA fragment sequencing as described previously. All six isolates of S. maltophilia were collected from a conventional winter wheat farming field. Antibiotic-resistant Chryseobacterium spp. isolates were recovered from various fields (conventional winter wheat, conventional rapeseed, and organic rapeseed). Two of the isolates were identified as C. aahli, and another two were identified as C. soldanellicola; for four of the isolates, only the genus could be assigned as Chryseobacterium spp. All selected isolates of S. maltophilia and Chryseobacterium spp. were resistant to at least two classes of antibiotics (β-lactams, aminoglycosides, and/or fluoroquinolones) (Table S1).

S. maltophilia = assay: microbe, parasite or virus in culture; set-up: Broth microdilution MIC (Sensititre plates, ARIS 2X) against soil bacterial isolates; conditions: Stenotrophomonas maltophilia
Source text: as §1

Chryseobacterium sp. = assay: microbe, parasite or virus in culture; set-up: Broth microdilution MIC (Sensititre plates, ARIS 2X) against soil bacterial isolates; conditions: Chryseobacterium
Source text: as §1

C. soldanellicola = assay: organism not typed; set-up: Broth microdilution MIC (Sensititre plates, ARIS 2X) against soil bacterial isolates; conditions: soil
Source text: as §1

IND-17 [3] = test system: T2, IND-17; assay: UV-Vis spectrophotometry, initial hydrolysis rates, […] nm; type: biochemical, Chryseobacterium sp.; conditions: 50 mM HEPES pH 7.0, 50 µM ZnCl2, 22 °C; remark: listed apart in the source
CHM [4] = test system: T1, CHM; assay: as above; type: biochemical, Chryseobacterium sp.; conditions: 50 mM HEPES pH 7.0, 50 µM ZnCl2, 22 °C; remark: listed apart in the source
IND-17 [5] = test system: T2, IND-17; assay: as above; type: biochemical, Chryseobacterium sp.; conditions: 50 mM HEPES pH 7.0, 50 µM ZnCl2, 22 °C; remark: listed apart in the source
CHM [6] = test system: T1, CHM; assay: as above; type: biochemical, Chryseobacterium sp.; conditions: 50 mM HEPES pH 7.0, 50 µM ZnCl2, 22 °C; remark: listed apart in the source
IND-17 [7] = test system: T2, IND-17; assay: as above; type: biochemical, Chryseobacterium sp.; conditions: 50 mM HEPES pH 7.0, 50 µM ZnCl2, 22 °C; remark: listed apart in the source
CHM [8] = test system: T1, CHM; assay: as above; type: biochemical, Chryseobacterium sp.; conditions: 50 mM HEPES pH 7.0, 50 µM ZnCl2, 22 °C; remark: listed apart in the source
IND-17 [9] = test system: T2, IND-17; assay: as above; type: biochemical, Chryseobacterium sp.; conditions: 50 mM HEPES pH 7.0, 50 µM ZnCl2, 22 °C; remark: listed apart in the source

| SMILES | MIC (C. aahli; Isolate No.=3-7-14) [µg/mL] | MIC (S. maltophilia; Isolate No.=2-1-3) [µg/mL] | MIC (S. maltophilia; Isolate No.=2-4-11) [µg/mL] | MIC (Chryseobacterium sp.; Isolate No.=2-2-6) [µg/mL] | MIC (C. soldanellicola; Isolate No.=3-7-16) [µg/mL] | MIC (Chryseobacterium sp.; Isolate No.=2-4-10) [µg/mL] | MIC (C. aahli; Isolate No.=3-12-27) [µg/mL] | MIC (S. maltophilia; Isolate No.=2-12-28) [µg/mL] | MIC (C. soldanellicola; Isolate No.=4-6-16) [µg/mL] | further results |
| --- | --- | --- | --- | --- | --- | --- | --- | --- | --- | --- |
| CO/N=C(\C(=O)N[C@@H]1C(=O)N2C(C(=O)O)=C(COC(N)=O)CS[C@H]12)c1ccco1 [Cefuroxime] | 32 (≈ 75.4 µM) | 32 (≈ 75.4 µM) | > 32 | > 32 | 32 (≈ 75.4 µM) | – | – | – | – | Km (CHM [1]): 76 ± 19 µM; Km (IND-17 [2]): 30 ± 5.8 µM |
| C[C@@H](O)[C@H]1C(=O)N2C(C(=O)O)=C(SCCN=CN)C[C@H]12 [Imipenem] | 16 (≈ 53.4 µM) | 16 (≈ 53.4 µM) | > 16 | 8 (≈ 26.7 µM) | 4 (≈ 13.4 µM) | ≤ 2 | – | – | – | Km (IND-17 [3]): 185 ± 19 µM; Km (CHM [4]): 389 ± 48 µM; MIC (Chryseobacterium sp.; Isolate No.=2-8-20): 4 µg/mL (≈ 13.4 µM) |
| O=C(O)c1cn(C2CC2)c2cc(N3CCNCC3)c(F)cc2c1=O [Ciprofloxacin] | 2 (≈ 6.04 µM) | 1 (≈ 3.02 µM) | – | ≤ 0.5 | ≤ 0.5 | 1 (≈ 3.02 µM) | ≤ 0.5 | 2 (≈ 6.04 µM) | – | MIC (S. maltophilia; Isolate No.=2-8-21): ≤ 0.5 µg/mL |
| NCC[C@H](O)C(=O)N[C@@H]1C[C@H](N)[C@@H](O[C@H]2O[C@H](CN)[C@@H](O)[C@H](O)[C@H]2O)[C@H](O)[C@H]1O[C@H]1O[C@H](CO)[C@@H](O)[C@H](N)[C@H]1O [Amikacin] | 32 (≈ 54.6 µM) | ≤ 8 | 16 (≈ 27.3 µM) | ≤ 8 | 32 (≈ 54.6 µM) | – | ≤ 8 | – | ≤ 8 | MIC (S. maltophilia; Isolate No.=2-8-21): 32 µg/mL (≈ 54.6 µM); MIC (Chryseobacterium sp.; Isolate No.=2-6-15): 32 µg/mL (≈ 54.6 µM) |
| CCN1CCN(C(=O)N[C@@H](C(=O)N[C@@H]2C(=O)N3[C@@H]2SC(C)(C)[C@@H]3C(=O)O)c2ccccc2)C(=O)C1=O [Piperacillin] | 32 (≈ 61.8 µM) | 64 (≈ 124 µM) | ≤ 16 | 32 (≈ 61.8 µM) | ≤ 16 | ≤ 16 | ≤ 16 | 32 (≈ 61.8 µM) | – | MIC (Chryseobacterium sp.; Isolate No.=2-6-15): 128 µg/mL (≈ 247 µM) |
| CO/N=C(\C(=O)N[C@@H]1C(=O)N2C(C(=O)O)=C(CSc3nc(=O)c(O)nn3C)CS[C@H]12)c1csc(N)n1 [Ceftriaxone] | 64 (≈ 115 µM) | 32 (≈ 57.7 µM) | – | > 64 | 4 (≈ 7.21 µM) | 64 (≈ 115 µM) | – | > 64 | 8 (≈ 14.4 µM) | – |
| O=C(Cc1cccs1)N[C@@H]1C(=O)N2C(C(=O)O)=C(/C=C/c3ccc([N+](=O)[O-])cc3[N+](=O)[O-])CS[C@H]12 [Nitrocefin] | – | – | – | – | – | – | – | – | – | Km (IND-17 [5]): 152 ± 4.7 µM; Km (CHM [6]): 153 ± 10 µM |
| CC(C)(O/N=C(\C(=O)N[C@@H]1C(=O)N2C(C(=O)[O-])=C(C[n+]3ccccc3)CS[C@H]12)c1csc(N)n1)C(=O)O [Ceftazidime] | 8 (≈ 14.6 µM) | 4 (≈ 7.32 µM) | 2 (≈ 3.66 µM) | 2 (≈ 3.66 µM) | ≤ 1 | 4 (≈ 7.32 µM) | 4 (≈ 7.32 µM) | 8 (≈ 14.6 µM) | – | Km (CHM [1]): 200 ± 41 µM |
| COCC1=C(C(=O)O)N2C(=O)[C@@H](NC(=O)/C(=N\OC)c3csc(N)n3)[C@H]2SC1 [Cefpodoxime] | 16 (≈ 37.4 µM) | 16 (≈ 37.4 µM) | > 16 | > 16 | 4 (≈ 9.36 µM) | – | – | – | 8 (≈ 18.7 µM) | – |
| CC1(C)S[C@@H]2[C@H](NC(=O)[C@H](N)c3ccccc3)C(=O)N2[C@H]1C(=O)O [Ampicillin] | – | – | – | – | – | – | – | – | – | Km (IND-17 [7]): 470 ± 108 µM |
| C[C@@H](O)[C@H]1C(=O)N2C(C(=O)O)=C(S[C@@H]3CN[C@H](C(=O)N(C)C)C3)[C@H](C)[C@H]12 [Meropenem] | 8 (≈ 20.9 µM) | ≤ 1 | 2 (≈ 5.22 µM) | > 8 | 2 (≈ 5.22 µM) | – | – | > 8 | 4 (≈ 10.4 µM) | Km (CHM [8]): 10 ± 2 µM; Km (IND-17 [9]): 258 ± 25 µM |
| Cc1nnc(SCC2=C(C(=O)O)N3C(=O)[C@@H](NC(=O)Cn4cnnn4)[C@H]3SC2)s1 [Cefazolin] | 32 (≈ 70.4 µM) | 32 (≈ 70.4 µM) | > 32 | > 32 | 32 (≈ 70.4 µM) | – | – | – | > 32 | Km (CHM [1]): 167 ± 27 µM; Km (IND-17 [2]): 38 ± 12 µM |
| CO[C@@]1(NC(=O)Cc2cccs2)C(=O)N2C(C(=O)O)=C(COC(N)=O)CS[C@@H]21 [Cefoxitin] | 32 (≈ 74.9 µM) | 32 (≈ 74.9 µM) | – | > 32 | 8 (≈ 18.7 µM) | 32 (≈ 74.9 µM) | – | > 32 | 16 (≈ 37.4 µM) | MIC (Chryseobacterium sp.; Isolate No.=2-6-15): 16 µg/mL (≈ 37.4 µM) |
| O=C1CN(/N=C/c2ccc([N+](=O)[O-])o2)C(=O)N1 [Nitrofurantoin] | 128 (≈ 537 µM) | 128 (≈ 537 µM) | > 128 | 64 (≈ 269 µM) | 64 (≈ 269 µM) | 32 (≈ 134 µM) | 64 (≈ 269 µM) | – | ≤ 16 | – |
| NC[C@H]1O[C@H](O[C@H]2[C@H](O)[C@@H](O[C@H]3O[C@H](CO)[C@@H](O)[C@H](N)[C@H]3O)[C@H](N)C[C@@H]2N)[C@H](N)C[C@@H]1O [Tobramycin] | 8 (≈ 17.1 µM) | ≤ 4 | – | > 8 | 8 (≈ 17.1 µM) | – | – | – | – | MIC (S. maltophilia; Isolate No.=2-8-21): 8 µg/mL (≈ 17.1 µM) |
| C[C@H]1[C@H](NC(=O)/C(=N\OC(C)(C)C(=O)O)c2csc(N)n2)C(=O)N1S(=O)(=O)O [Aztreonam] | 32 (≈ 73.5 µM) | 16 (≈ 36.7 µM) | ≤ 8 | > 32 | 32 (≈ 73.5 µM) | – | – | 32 (≈ 73.5 µM) | > 32 | – |
| CO/N=C(\C(=O)N[C@@H]1C(=O)N2C(C(=O)[O-])=C(C[N+]3(C)CCCC3)CS[C@H]12)c1csc(N)n1 [Cefepime] | 8 (≈ 16.6 µM) | ≤ 4 | – | ≤ 4 | ≤ 4 | – | ≤ 4 | > 32 | – | MIC (S. maltophilia; Isolate No.=2-12-31): 16 µg/mL (≈ 33.3 µM) |
| CO[C@@]1(NC(=O)C2SC(=C(C(N)=O)C(=O)O)S2)C(=O)N2C(C(=O)O)=C(CSc3nnnn3C)CS[C@@H]21 (some centres unmarked) [Cefotetan Na] | 32 (≈ 55.6 µM) | 4 (≈ 6.95 µM) | ≤ 8 | > 32 | 32 (≈ 55.6 µM) | – | – | – | > 32 | – |
